Measurements: ChEMBL document CHEMBL1148875, “Benzopyrans as selective estrogen receptor beta agonists (SERBAs). Part 2: structure-activity relationship studies on the benzopyran scaffold” (Bioorg Med Chem Lett, 2007)

What was measured:
[1] = molecular target: Estrogen receptor beta (Homo sapiens, UniProt Q92731); assay: Binding affinity to human ERbeta
[2] = molecular target: T1, Estrogen receptor (Homo sapiens, UniProt P03372); assay: Binding affinity to human ERalpha
T1 sequence (P03372 whole entry): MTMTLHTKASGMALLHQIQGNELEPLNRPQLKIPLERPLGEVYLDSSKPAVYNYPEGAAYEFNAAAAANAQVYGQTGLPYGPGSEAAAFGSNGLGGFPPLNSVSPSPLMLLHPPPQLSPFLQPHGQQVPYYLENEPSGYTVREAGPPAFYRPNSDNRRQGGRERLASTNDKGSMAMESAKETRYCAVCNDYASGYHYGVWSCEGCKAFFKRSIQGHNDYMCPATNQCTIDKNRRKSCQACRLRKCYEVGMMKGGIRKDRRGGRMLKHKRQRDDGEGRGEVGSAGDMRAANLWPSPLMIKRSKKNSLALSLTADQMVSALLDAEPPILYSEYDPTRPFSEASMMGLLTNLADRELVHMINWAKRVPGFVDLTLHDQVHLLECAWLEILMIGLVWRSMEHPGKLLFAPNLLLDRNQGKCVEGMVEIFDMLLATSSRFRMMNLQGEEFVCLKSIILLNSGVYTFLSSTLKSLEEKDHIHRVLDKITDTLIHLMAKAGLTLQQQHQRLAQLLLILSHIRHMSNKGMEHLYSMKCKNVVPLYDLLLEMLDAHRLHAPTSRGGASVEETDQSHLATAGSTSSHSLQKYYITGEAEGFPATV

Sequence of Estrogen receptor beta (Q92731 whole entry): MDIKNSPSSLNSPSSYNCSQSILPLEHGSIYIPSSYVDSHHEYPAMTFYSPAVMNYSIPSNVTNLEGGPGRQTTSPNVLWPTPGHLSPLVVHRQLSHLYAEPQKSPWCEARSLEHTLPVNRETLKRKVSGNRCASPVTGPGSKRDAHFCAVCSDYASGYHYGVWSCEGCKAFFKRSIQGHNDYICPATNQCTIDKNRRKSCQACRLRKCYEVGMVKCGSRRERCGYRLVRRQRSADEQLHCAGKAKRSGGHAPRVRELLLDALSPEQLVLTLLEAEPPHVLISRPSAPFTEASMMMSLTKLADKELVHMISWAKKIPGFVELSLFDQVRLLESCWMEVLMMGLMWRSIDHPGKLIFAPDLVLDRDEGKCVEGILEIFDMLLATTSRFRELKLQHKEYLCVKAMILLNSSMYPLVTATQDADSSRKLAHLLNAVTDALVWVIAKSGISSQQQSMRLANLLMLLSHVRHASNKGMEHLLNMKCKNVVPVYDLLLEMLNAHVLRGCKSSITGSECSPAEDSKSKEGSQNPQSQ

Structure (SMILES) | Ki [2] [nM] | Ki [1] [nM]
Oc1ccc([C@@H]2CCc3cc(O)ccc3O2)cc1 | – | 20.8
Oc1ccc([C@H]2Oc3cccc(O)c3[C@H]3CCC[C@H]32)cc1 | 0.35 | 0.66
Oc1ccc([C@H]2Oc3ccccc3[C@H]3CCC[C@H]32)cc1 | 40 | 22.1
Oc1ccc([C@H]2Oc3ccc(O)cc3[C@H]3CCCC[C@H]32)cc1 | 2.88 | 0.63
Oc1ccc([C@H]2Oc3ccc(O)cc3[C@H]3CCCCC[C@H]32)cc1 | 6.11 | 0.88

Now from value to molecule, other results behind:

Ki [2] [nM] | Structure (SMILES) | Ki [1] [nM]
41 | Oc1ccc([C@H]2Oc3cc(O)ccc3[C@H]3CCC[C@H]32)cc1 | 18.9
267 | Oc1ccc2c(c1)[C@H]1CCC[C@H]1[C@@H](c1ccccc1)O2 | –
65 | Oc1cccc([C@H]2Oc3ccc(O)cc3[C@H]3CCC[C@H]32)c1 | –
